Test results reported in patent publication US20110014178A1 (priority 2002, published 2011).

Tests used:
[1] = target: phospholipase C (alpha toxin produced by Clostridium perfringens) (Clostridium perfringens, UniProt P0C216); details: cited from earlier work
C. perfringens = type: in vivo, broiler chicks; details: 50 g/t in feed, challenged
Clostridium perfringens = type: cell-based; details: FIC plates

Molecule	effect on enzymatic activity of phospholipase C [1]	Feed Consum. (C. perfringens)	Feed Conv. (C. perfringens)	NE Mort. (C. perfringens)	Wt. Gain D 5 to D 14 (C. perfringens) [kg]	Wt. Gain D 5 to D 27 (C. perfringens) [kg]	Wt. Gain D 14 to D 27 (C. perfringens) [kg]	Lesion Score (0 to 3) Day 22 (C. perfringens; 0 normal, 3 most severe)	Lesion Score (0 to 3) Day 27 (C. perfringens; 0 normal, 3 most severe)	lysozyme effective alone (Clostridium perfringens; 100 times dilution of overnight culture, no nisin)	lysozyme required to achieve a bactericidal effect (Clostridium perfringens; in combination with nisin 3 ppm) [ppm]
O=C(O)CN(CCN(CC(=O)O)CC(=O)O)CC(=O)O [EDTA]	direct inhibitory effect										
bacitracin methylene disalicylate [BMD]		14.000	1.659	2	0.252	0.946	0.694	0.0	0.3		
lysozyme	direct inhibitory effect									approximately 120 ppm	8
